The EC50 is the concentration needed to bring the measured effect to its halfway point.

Chain of PAR4 (Q96RI0 18-385): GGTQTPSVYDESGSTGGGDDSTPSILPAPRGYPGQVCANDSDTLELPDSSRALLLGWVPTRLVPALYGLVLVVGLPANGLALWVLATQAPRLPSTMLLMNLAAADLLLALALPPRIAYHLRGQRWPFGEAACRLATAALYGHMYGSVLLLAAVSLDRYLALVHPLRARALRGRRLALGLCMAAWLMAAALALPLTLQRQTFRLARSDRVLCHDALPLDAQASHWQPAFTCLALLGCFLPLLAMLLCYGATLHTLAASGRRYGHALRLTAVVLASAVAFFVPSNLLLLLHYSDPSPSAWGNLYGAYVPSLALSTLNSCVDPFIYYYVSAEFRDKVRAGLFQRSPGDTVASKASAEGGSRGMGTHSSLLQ

For this test, the target named is PAR4 (Homo sapiens (Human), UniProt Q96RI0). The test can be described thus: FLIPR assay in PAR4-expressing HEK293 cells (PAR4 antagonist activity, calcium mobilization). The following applies: H-Ala-Phe(4-F)-Pro-Gly-Trp-Leu-Val-Lys-Asn-Gly-NH2-induced calcium mobilization. The test is classed as cell-based. The method in brief:
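HEK293 EBNA cells stably expressing human PAR4 (also endogenous PAR1) preincubated 30 min at room temperature with compound in HBSS/10 mM HEPES, 0.67% DMSO final. PAR4 agonist peptide then added and intracellular calcium mobilization monitored by fluorescence.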
On to `CNC(=O)c1ccc(-c2nc(COc3cc(F)cc4oc(-c5cn6nc(OC)sc6n5)cc34)c(C)s2)cc1` [Example 186, 4-(4-(((6-Fluoro-2-(2-methoxyimidazo[2,1-b][1,3,4]thiadiazol-6-yl)benzofuran-4-yl)oxy)methyl)-5-methylthiazol-2-yl)-N-methylbenzamide], for which the EC50 was 0.58 nM.
On to `COc1nn2cc(-c3cc4c(OCc5csc(-c6ccccc6)n5)cc(Cl)cc4o3)nc2s1` [Example 187, 6-(6-Chloro-4-((2-phenylthiazol-4-yl)methoxy)benzofuran-2-yl)-2-methoxyimidazo[2,1-b][1,3,4]thiadiazole], for which the EC50 came out at 1.6 nM.
For `COc1nn2cc(-c3cc4c(OCc5csc(-c6ccc(Cl)cc6)n5)cc(Cl)cc4o3)nc2s1` [Example 188, 6-(6-Chloro-4-((2-(4-chlorophenyl)thiazol-4-yl)methoxy)benzofuran-2-yl)-2-methoxyimidazo[2,1-b][1,3,4]thiadiazole] the value was 0.85 nM; for `COc1nn2cc(-c3cc4c(OCc5csc(-c6cccc(C)c6)n5)cc(Cl)cc4o3)nc2s1` [Example 189, 6-(6-Chloro-4-((2-(m-tolyl)thiazol-4-yl)methoxy)benzofuran-2-yl)-2-methoxyimidazo[2,1-b][1,3,4]thiadiazole], 1.3 nM.
Take `COc1nn2cc(-c3cc4c(OCc5csc(C6(F)CCOCC6)n5)cc(Cl)cc4o3)nc2s1` [Example 190]: the EC50 turned out to be 0.47 nM.
For `COc1nn2cc(-c3cc4c(OCc5csc(-c6ccccc6)n5)cccc4o3)nc2s1` [Example 191, 2-Methoxy-6-(4-((2-phenylthiazol-4-yl)methoxy)benzofuran-2-yl)imidazo[2,1-b][1,3,4]thiadiazole] the value was 2.6 nM.
The same measure for `COc1cc(OCc2csc(N3CCOCC3)n2)c2cc(-c3cn4nc([C@H](C)F)sc4n3)oc2c1` [Example 193, (S)-4-(4-(((2-(2-(1-Fluoroethyl)imidazo[2,1-b][1,3,4]thiadiazol-6-yl)-6-methoxybenzofuran-4-yl)oxy)methyl)thiazol-2-yl)morpholine]: 0.91 nM.
The same measure for `COc1cc(OCc2csc(-c3ccc(C(=O)N(C)C)cc3)n2)c2cc(-c3cn4nc([C@H](C)F)sc4n3)oc2c1` [Example 194, (S)-4-(4-(((2-(2-(1-Fluoroethyl)imidazo[2,1-b][1,3,4]thiadiazol-6-yl)-6-methoxybenzofuran-4-yl)oxy)methyl)thiazol-2-yl)-N,N-dimethylbenzamide]: 1.6 nM; for `C[C@H](F)c1nn2cc(-c3cc4c(OCc5csc(-c6ccccc6)n5)cc(F)cc4o3)nc2s1` [Example 195]: 1.3 nM; for `COc1cc(OCc2csc(C3(O)CCOCC3)n2)c2cc(-c3cn4nc([C@H](C)F)sc4n3)oc2c1` [Example 196, (S)-4-(4-(((2-(2-(1-Fluoroethyl)imidazo[2,1-b][1,3,4]thiadiazol-6-yl)-6-methoxybenzofuran-4-yl)oxy)methyl)thiazol-2-yl)tetrahydro-2H-pyran-4-ol]: 0.46 nM.
Turning to `COc1cc(OCc2csc(C3(F)CCOCC3)n2)c2cc(-c3cn4nc([C@H](C)F)sc4n3)oc2c1` [Example 197, (S)-2-(1-Fluoroethyl)-6-(4-((2-(4-fluorotetrahydro-2H-pyran-4-yl)thiazol-4-yl)methoxy)-6-methoxybenzofuran-2-yl)imidazo[2,1-b][1,3,4]thiadiazole], the EC50 was 0.34 nM.
Turning to `COc1cc(OCc2csc(C3(O)CC(C)OC(C)C3)n2)c2cc(-c3cn4nc([C@H](C)F)sc4n3)oc2c1` (stereo partly drawn) [Example 198, 4-(4-(((2-(2-((S)-1-Fluoroethyl)imidazo[2,1-b][1,3,4]thiadiazol-6-yl)-6-methoxybenzofuran-4-yl)oxy)methyl)thiazol-2-yl)-2,6-dimethyltetrahydro-2H-pyran-4-ol], the EC50 worked out at 0.42 nM.
The same measure for `COc1cc(OCc2csc(C3(F)CC(C)OC(C)C3)n2)c2cc(-c3cn4nc([C@H](C)F)sc4n3)oc2c1` (stereo partly drawn) [Example 199, 6-(4-((2-(4-Fluoro-2,6-dimethyltetrahydro-2H-pyran-4-yl)thiazol-4-yl)methoxy)-6-methoxybenzofuran-2-yl)-2-((S)-1-fluoroethyl)imidazo[2,1-b][1,3,4]thiadiazole]: 1.1 nM.
The same measure for `COc1cc(OCc2nc(C3(O)CCOCC3)sc2C)c2cc(-c3cn4nc([C@H](C)F)sc4n3)oc2c1` [Example 200, (S)-4-(4-(((2-(2-(1-Fluoroethyl)imidazo[2,1-b][1,3,4]thiadiazol-6-yl)-6-methoxybenzofuran-4-yl)oxy)methyl)-5-methylthiazol-2-yl)tetrahydro-2H-pyran-4-ol]: 0.51 nM.
For `COc1cc(OCc2csc(-c3ccccc3)n2)c2cc(-c3cn4nc(C)ccc4n3)oc2c1` [Example 203, 4-(((6-Methoxy-2-(6-methylimidazo[1,2-b]pyridazin-2-yl)benzofuran-4-yl)oxy)methyl)-2-phenylthiazole] the value was 0.76 nM; for `COc1cc(OCc2csc(C3CCSCC3)n2)c2cc(-c3cn4nc(C)ccc4n3)oc2c1` [Example 204, 4-(((6-Methoxy-2-(6-methylimidazo[1,2-b]pyridazin-2-yl)benzofuran-4-yl)oxy)methyl)-2-(tetrahydro-2H-thiopyran-4-yl)thiazole], 0.72 nM; for `COc1cc(OCc2csc(Cl)n2)c2cc(-c3cn4nc(C)ccc4n3)oc2c1` [Example 206, 2-Chloro-4-(((6-methoxy-2-(6-methylimidazo[1,2-b]pyridazin-2-yl)benzofuran-4-yl)oxy)methyl)thiazole], 12 nM.
As to `COc1cc(OCc2csc(N3CCN(C)CC3)n2)c2cc(-c3cn4nc(C)ccc4n3)oc2c1` [Example 207, 4-(((6-Methoxy-2-(6-methylimidazo[1,2-b]pyridazin-2-yl)benzofuran-4-yl)oxy)methyl)-2-(4-methylpiperazin-1-yl)thiazole], the EC50 was 7.7 nM.
For the molecule `COc1cc(OCc2csc(-c3ccc(C(F)(F)F)cc3)n2)c2cc(-c3cn4nc(C)ccc4n3)oc2c1` [Example 208, 4-(((6-Methoxy-2-(6-methylimidazo[1,2-b]pyridazin-2-yl)benzofuran-4-yl)oxy)methyl)-2-(4-(trifluoromethyl)phenyl)thiazole], the EC50 was found to be 0.82 nM.
Consider `COc1cc(OCc2csc(-c3ccc(OC(F)(F)F)cc3)n2)c2cc(-c3cn4nc(C)ccc4n3)oc2c1` [Example 210, 4-(((6-Methoxy-2-(6-methylimidazo[1,2-b]pyridazin-2-yl)benzofuran-4-yl)oxy)methyl)-2-(4-(trifluoromethoxy)phenyl)thiazole], for which the EC50 is 0.86 nM.
The same measure for `COc1cc(OCc2csc(-c3ccncc3)n2)c2cc(-c3cn4nc(C)ccc4n3)oc2c1` [Example 211, 4-(((6-Methoxy-2-(6-methylimidazo[1,2-b]pyridazin-2-yl)benzofuran-4-yl)oxy)methyl)-2-(pyridin-4-yl)thiazole]: 0.72 nM; for `COc1cc(OCc2csc(C3(F)CCOCC3)n2)c2cc(-c3cn4nc(C)ccc4n3)oc2c1` [Example 212, 2-(4-Fluorotetrahydro-2H-pyran-4-yl)-4-(((6-methoxy-2-(6-methylimidazo[1,2-b]pyridazin-2-yl)benzofuran-4-yl)oxy)methyl)thiazole]: 0.29 nM.
For `COc1cc(OCc2csc(C3CCOCC3)n2)c2cc(-c3cn4nc(C)ccc4n3)oc2c1` [Example 213], the EC50 amounted to 3.6 nM.
Take `COc1ccc(-c2nc(COc3cc(OC)cc4oc(-c5cn6nc(C)ccc6n5)cc34)cs2)cc1` [Example 214]: the EC50 was found to be 1.2 nM.

Source of the values: patent publication US9688695B2, “Imidazothiadiazole and imidazopyrazine derivatives as protease activated receptor 4 (PAR4) inhibitors for treating platelet aggregation” (BRISTOL-MYERS SQUIBB COMPANY, priority 2012, dated 2017).
